Data taken from publication PMC10845951, “Characterization of a selective, iron-chelating antifungal compound that disrupts fungal metabolism and synergizes with fluconazole” (Microbiology Spectrum, 2024).

Assays:
C. glabrata cells [1] = experiment: Dead cell staining with propidium iodide; assay type: cell-based, Candida glabrata; conditions: 24 h
Description: Propidium iodide (Sigma) was freshly prepared to a final concentration of 5 µg/mL in PBS.
The samples were incubated at 30°C and harvested to a total number of cells equivalent to a 5-mL culture with an OD600 of 0.3 at 6 and 24 h. As a positive control for cell death, cells treated with DMSO were incubated at 75°C for 1 h. The cells were centrifuged at 7,000 rpm for 5 minutes to remove the supernatant, followed by resuspension of the cell pellets in 100-µL 5 µg/mL propidium iodide for 10 minutes in the dark at room temperature. The supernatant was removed by centrifugation at 7,000 rpm for 5 minutes, followed by washing with 500-µL PBS and a final centrifugation at 7,000 rpm for 5 minutes. Finally, the cells were resuspended in 150-µL PBS and measured for fluorescence intensity using a microplate reader.
The autofluorescence of the unstained treated samples was subtracted from raw fluorescence intensities of the stained samples and then normalized to DMSO. Normalized values were log transformed and then analyzed using one-way ANOVA and Tukey’s HSD post hoc test.

HEK-293 and HS-5 cells = experiment: Incucyte live-cell imaging of treated human cells (morphology, compound precipitation)
[2] = test system: Aft1/2 target genes in aft1Δ S. cerevisiae; experiment: RT-qPCR of Aft1/2 target genes in aft1Δ strain; assay type: cell-based, Saccharomyces cerevisiae; conditions: 10 µM, 24 h
Description: WT and […] cells were grown overnight in complete supplement mixture (CSM). […] After 24 h of incubation, cells were collected, and total RNA purification, reverse transcription, and RT-qPCR were performed as previously described with minor modifications ([59], [66]). Briefly, total RNA was purified using the RNeasy Mini Kit (74104, Qiagen), and reverse transcription was performed using the QuantiTect Reverse Transcription Kit (205311, Qiagen). RT-qPCR experiments were done using the HOT FIREPol EvaGreen qPCR Mix (08-36-00001-10, Solis Biodyne) and a LightCycler 96 System (Roche). Expression of the 5S gene was used as a control. The primers used in RT-qPCR experiments are as follows: […]

C. glabrata cells [3] = experiment: ROS assay (H2DCF-DA fluorescence); assay type: cell-based, Candida glabrata; conditions: 30 µM

## c1ccc(-c2cccc(-c3ccccn3)n2)nc1 [2,2′:6′,2′′-terpyridine]
C. glabrata cells [1]; 10 µM, vs DMSO
  number of propidium iodide-positive cells: apparent reduction in the number of propidium iodide-positive cells
C. glabrata cells [1]
  mode of antifungal effect: cytostatic effect
C. glabrata cells [1]; increasing concentrations
  propidium iodide fluorescence (cell death): no significant difference in fluorescence intensity compared to DMSO
HEK-293 and HS-5 cells; 100 µM
  cell morphology: morphological changes
HEK-293 and HS-5 cells; cell culture medium, up to 100 µM
  compound precipitation / solubility: better solubility
[2]
  transcriptional responses after deletion of AFT1: attenuated the transcriptional responses
C. glabrata cells [3]; 3 or 6 h
  ROS formation: no ROS formation could be detected
C. glabrata cells [3]; 24 h
  ROS formation: significant ROS production
